From patent US12030878B2 (BRISTOL-MYERS SQUIBB COMPANY, priority 2017, dated 2024) come the findings set out here.

Molecules are shown by their SMILES.

Holding throughout (assay type): cell-based
The target of one experiment is T1, human TLR7 (Homo sapiens, UniProt Q9NYK1).
T1 construct: host or cells: HEK-Blue cells
T1 sequence (Q9NYK1 27-1049): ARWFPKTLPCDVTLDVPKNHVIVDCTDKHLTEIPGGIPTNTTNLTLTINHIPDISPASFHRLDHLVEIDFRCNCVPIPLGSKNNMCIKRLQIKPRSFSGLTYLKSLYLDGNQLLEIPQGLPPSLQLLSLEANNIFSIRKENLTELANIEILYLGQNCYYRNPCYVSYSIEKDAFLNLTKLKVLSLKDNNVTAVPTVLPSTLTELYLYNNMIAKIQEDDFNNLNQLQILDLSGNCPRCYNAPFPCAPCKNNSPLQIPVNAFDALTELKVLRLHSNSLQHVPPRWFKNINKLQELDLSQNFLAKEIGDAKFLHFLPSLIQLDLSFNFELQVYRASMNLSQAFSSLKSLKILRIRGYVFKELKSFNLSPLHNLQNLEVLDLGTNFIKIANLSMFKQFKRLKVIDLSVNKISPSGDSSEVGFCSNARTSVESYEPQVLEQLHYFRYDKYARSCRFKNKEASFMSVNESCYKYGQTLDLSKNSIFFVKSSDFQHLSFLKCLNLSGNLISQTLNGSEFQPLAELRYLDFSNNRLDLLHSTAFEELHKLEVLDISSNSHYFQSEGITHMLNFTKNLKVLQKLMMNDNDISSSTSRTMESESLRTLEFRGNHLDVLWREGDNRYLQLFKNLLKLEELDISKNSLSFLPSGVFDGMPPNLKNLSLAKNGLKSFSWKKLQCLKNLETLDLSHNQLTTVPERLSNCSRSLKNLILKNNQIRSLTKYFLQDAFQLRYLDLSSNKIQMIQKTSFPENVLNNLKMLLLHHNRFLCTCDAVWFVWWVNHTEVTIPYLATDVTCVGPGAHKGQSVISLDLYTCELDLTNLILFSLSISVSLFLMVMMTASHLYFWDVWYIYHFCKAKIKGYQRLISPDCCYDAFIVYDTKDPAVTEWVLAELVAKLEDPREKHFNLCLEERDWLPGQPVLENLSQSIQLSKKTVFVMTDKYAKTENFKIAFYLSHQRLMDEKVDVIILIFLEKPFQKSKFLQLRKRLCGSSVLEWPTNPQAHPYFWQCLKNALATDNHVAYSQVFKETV
Put plainly: TLR7 inhibition reporter assay (HEK-Blue SEAP). As to conditions: HEK-Blue cells overexpressing human TLR7, stimulated with gardiquimod 7.5 μM, 22 hour incubation. Put shortly: (§1)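 Test compounds, final 0.05 nM–50 μM, pre-treat HEK-Blue human TLR7, TLR8 or TLR9 reporter cells before agonist addition (TLR8 R848 15.9 μM; TLR7 gardiquimod 7.5 μM; TLR9 ODN2006 5 nM). Incubation runs 22 h, 37 °C. SEAP detection gives percent inhibition against DMSO and reference-inhibitor controls.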

In another experiment the target is T2, human TLR8 (Homo sapiens, UniProt Q9NR97).
T2 construct: host or cells: HEK-Blue cells
T2 sequence (Q9NR97 27-1041): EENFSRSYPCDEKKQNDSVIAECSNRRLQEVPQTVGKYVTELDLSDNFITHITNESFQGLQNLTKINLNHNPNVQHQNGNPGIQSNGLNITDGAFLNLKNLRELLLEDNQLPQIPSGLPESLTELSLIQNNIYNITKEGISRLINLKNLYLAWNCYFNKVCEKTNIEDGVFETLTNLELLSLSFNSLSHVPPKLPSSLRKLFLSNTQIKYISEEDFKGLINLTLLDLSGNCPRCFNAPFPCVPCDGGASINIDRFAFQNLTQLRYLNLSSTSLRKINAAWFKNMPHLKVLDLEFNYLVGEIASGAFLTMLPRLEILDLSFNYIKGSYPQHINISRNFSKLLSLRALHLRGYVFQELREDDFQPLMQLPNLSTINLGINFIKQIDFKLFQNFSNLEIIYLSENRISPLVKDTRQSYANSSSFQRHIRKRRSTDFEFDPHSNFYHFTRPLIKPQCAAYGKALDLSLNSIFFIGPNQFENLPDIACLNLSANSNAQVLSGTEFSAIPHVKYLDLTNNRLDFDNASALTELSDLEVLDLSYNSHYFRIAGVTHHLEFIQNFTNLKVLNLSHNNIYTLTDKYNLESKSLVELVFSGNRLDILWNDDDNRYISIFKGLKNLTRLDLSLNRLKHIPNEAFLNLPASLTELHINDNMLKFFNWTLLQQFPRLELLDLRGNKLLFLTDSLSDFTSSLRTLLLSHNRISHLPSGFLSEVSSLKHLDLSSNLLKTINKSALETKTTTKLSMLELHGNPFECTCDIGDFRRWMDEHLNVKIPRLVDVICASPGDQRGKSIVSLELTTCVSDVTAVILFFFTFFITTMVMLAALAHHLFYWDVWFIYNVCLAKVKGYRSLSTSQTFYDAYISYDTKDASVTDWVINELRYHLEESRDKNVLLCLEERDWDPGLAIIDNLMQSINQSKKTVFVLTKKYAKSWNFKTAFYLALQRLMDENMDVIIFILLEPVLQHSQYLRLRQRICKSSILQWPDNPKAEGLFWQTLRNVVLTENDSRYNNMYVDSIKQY
The experiment can be described thus: TLR8 inhibition reporter assay (HEK-Blue SEAP). As to conditions: HEK-Blue cells overexpressing human TLR8, stimulated with R848 15.9 μM, 22 hour incubation. In outline:
as §1

The next experiment has as its target T3, human TLR9 (Homo sapiens, UniProt Q9NR96).
T3 construct: host or cells: HEK-Blue cells
T3 sequence (Q9NR96 26-1032): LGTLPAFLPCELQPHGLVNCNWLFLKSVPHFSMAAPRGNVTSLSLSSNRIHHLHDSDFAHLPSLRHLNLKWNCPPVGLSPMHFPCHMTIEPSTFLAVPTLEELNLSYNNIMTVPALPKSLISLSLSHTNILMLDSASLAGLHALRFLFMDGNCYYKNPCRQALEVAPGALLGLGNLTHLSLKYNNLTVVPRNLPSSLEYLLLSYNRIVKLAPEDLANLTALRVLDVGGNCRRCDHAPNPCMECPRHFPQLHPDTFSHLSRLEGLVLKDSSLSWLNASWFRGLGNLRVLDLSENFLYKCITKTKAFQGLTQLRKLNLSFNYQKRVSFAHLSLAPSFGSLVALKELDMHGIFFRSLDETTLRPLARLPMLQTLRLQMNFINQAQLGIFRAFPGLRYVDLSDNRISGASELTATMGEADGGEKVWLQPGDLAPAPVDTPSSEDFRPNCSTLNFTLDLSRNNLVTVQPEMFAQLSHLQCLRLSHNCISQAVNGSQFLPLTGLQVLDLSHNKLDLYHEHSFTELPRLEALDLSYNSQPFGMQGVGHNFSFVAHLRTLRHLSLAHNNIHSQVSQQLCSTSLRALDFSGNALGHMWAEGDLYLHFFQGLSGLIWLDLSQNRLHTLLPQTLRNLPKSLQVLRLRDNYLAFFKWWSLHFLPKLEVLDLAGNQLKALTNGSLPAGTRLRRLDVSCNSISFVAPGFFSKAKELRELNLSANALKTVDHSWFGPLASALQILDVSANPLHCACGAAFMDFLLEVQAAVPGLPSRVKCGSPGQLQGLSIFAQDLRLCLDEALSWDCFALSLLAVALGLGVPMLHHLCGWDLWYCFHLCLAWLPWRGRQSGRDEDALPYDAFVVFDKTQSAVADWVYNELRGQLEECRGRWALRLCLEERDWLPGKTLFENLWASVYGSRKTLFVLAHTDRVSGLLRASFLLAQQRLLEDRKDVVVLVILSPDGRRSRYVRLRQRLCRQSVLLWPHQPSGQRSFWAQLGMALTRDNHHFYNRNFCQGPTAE
The experiment can be described thus: TLR9 inhibition reporter assay (HEK-Blue SEAP). As to conditions: HEK-Blue cells overexpressing human TLR9, stimulated with ODN2006 5 nM, 22 hour incubation. Put shortly:
as §1
In general terms: In a reporter assay the amount or activity of a reporter protein is the signal.

Take `Cc1c(-c2[nH]c3ccc(OC4CCN(C)CC4)cc3c2C(C)C)cn2cnnc2c1C` [Example 53, 6-(3-isopropyl-5-((1-methylpiperidin-4-yl)oxy)-1H-indol-2-yl)-7,8-dimethyl-[1,2,4]triazolo[4,3-a]pyridine]: the IC50 is 0.0019 µM on human TLR7, 0.0033 µM at human TLR8 and 0.494 µM on human TLR9.

Consider `Cc1c(-c2[nH]c3ccc(OCC4CCN(C)CC4)cc3c2C(C)C)cn2cnnc2c1C` [Example 54, 6-(3-isopropyl-5-((1-methylpiperidin-4-yl)methoxy)-1H-indol-2-yl)-7,8-dimethyl-[1,2,4]triazolo[4,3-a]pyridine], for which the IC50 against human TLR7 amounted to 0.0015 µM; at human TLR8, 0.0031 µM; against human TLR9, 1.25 µM.

`Cc1c(-c2[nH]c3ccc(OCC4CCN(C(C)C)CC4)cc3c2C(C)C)cn2cnnc2c1C` [Example 55, 6-(3-isopropyl-5-((1-isopropylpiperidin-4-yl)methoxy)-1H-indol-2-yl)-7,8-dimethyl-[1,2,4]triazolo[4,3-a]pyridine]: the IC50 on human TLR7 worked out at 0.0026 µM; at human TLR8, 0.0043 µM; at human TLR9, 1.62 µM.

As for `Cc1c(-c2[nH]c3ccc(OC4CCN(C5COC5)CC4)cc3c2C(C)C)cn2cnnc2c1C` [Example 56, 6-(3-isopropyl-5-((1-(oxetan-3-yl)piperidin-4-yl)oxy)-1H-indol-2-yl)-7,8-dimethyl-[1,2,4]triazolo[4,3-a]pyridine], the IC50 against human TLR7 is 0.0263 µM; on human TLR8, 0.0194 µM; at human TLR9 it was 19.3 µM.

Regarding `Cc1c(-c2[nH]c3ccc(OC4CCN(C(C)C)CC4)cc3c2C(C)C)cn2cnnc2c1C` [Example 57, 6-(3-isopropyl-5-((1-isopropylpiperidin-4-yl)oxy)-1H-indol-2-yl)-7,8-dimethyl-[1,2,4]triazolo[4,3-a]pyridine], the IC50 came to 0.0336 µM against human TLR7, 0.0145 µM against human TLR8 and 18.6 µM against human TLR9.

In the case of `Cc1cc(-c2[nH]c3ccc(OCC4CN(C(C)C)C4)cc3c2C(C)C)cn2ncnc12` [Example 58, 6-(3-isopropyl-5-((1-isopropylazetidin-3-yl)methoxy)-1H-indol-2-yl)-8-methyl-[1,2,4] triazolo[1,5-a]pyridine], the IC50 against human TLR7 amounted to 0.0014 µM; on human TLR8, 0.0051 µM; at human TLR9, 2.44 µM.

As for `Cc1cc(-c2[nH]c3ccc(OCC4CN(C)C4)cc3c2C(C)C)cn2ncnc12` [Example 59, 6-(3-isopropyl-5-((1-methylazetidin-3-yl)methoxy)-1H-indol-2-yl)-8-methyl-[1,2,4]triazolo[1,5-a]pyridine], the IC50 came to 0.0005 µM against human TLR7, 0.0068 µM against human TLR8 and 2.99 µM against human TLR9.

Consider `Cc1cc(-c2[nH]c3ccc(OCC4CN(C5COC5)C4)cc3c2C(C)C)cn2ncnc12` [Example 60, 6-(3-isopropyl-5-((1-(oxetan-3-yl)azetidin-3-yl)methoxy)-1H-indol-2-yl)-8-methyl-[1,2,4]triazolo[1,5-a]pyridine], for which the IC50 against human TLR7 came out at 0.0012 µM; on human TLR8, 0.0047 µM; against human TLR9, 2.62 µM.

In the case of `Cc1c(-c2[nH]c3ccc(OCC4CN(C)C4)cc3c2C(C)C)cn2cnnc2c1C` [Example 61, 6-(3-isopropyl-5-((1-methylazetidin-3-yl)methoxy)-1H-indol-2-yl)-7,8-dimethyl-[1,2,4]triazolo[4,3-a]pyridine], the figures for the IC50 at human TLR7, at human TLR8 and at human TLR9 were 0.493 µM, 0.439 µM and 6.36 µM, respectively.

On to `CCCN1CCC(COc2ccc3[nH]c(-c4cn5cnnc5c(C)c4C)c(C(C)C)c3c2)CC1` [Example 62, 6-(3-isopropyl-5-((1-propylpiperidin-4-yl)methoxy)-1H-indol-2-yl)-7,8-dimethyl-[1,2,4]triazolo[4,3-a]pyridine], for which the IC50 at human TLR7 worked out at 0.001 µM; against human TLR8 it was 0.006 µM; against human TLR9, 1.29 µM.

On to `CCCN1CCC(Oc2ccc3[nH]c(-c4cn5cnnc5c(C)c4C)c(C(C)C)c3c2)CC1` [Example 63, 6-(3-isopropyl-5-((1-propylpiperidin-4-yl)oxy)-1H-indol-2-yl)-7,8-dimethyl-[1,2,4]triazolo[4,3-a]pyridine], for which the IC50 against human TLR7 stood at 0.0021 µM; on human TLR8 it was 0.0025 µM; on human TLR9, 2.19 µM.

Consider `Cc1cc(-c2[nH]c3ccc(OC4CCC(N(C)C)CC4)cc3c2C(C)C)cn2ncnc12` (stereo not drawn) [Example 64, 4-((3-isopropyl-2-(8-methyl-[1,2,4]triazolo[1,5-a]pyridin-6-yl)-1H-indol-5-yl)oxy)-N,N-dimethylcyclohexan-1-amine], for which the figures for the IC50 at human TLR7, against human TLR8 and against human TLR9 were 0.0007 µM, 0.0106 µM and 2.57 µM, respectively.

In the case of `COc1cc(-c2[nH]c3ccc(OC4CCN(C)CC4)cc3c2C(C)C)cn2ncnc12` [Example 65, 6-(3-isopropyl-5-((1-methylpiperidin-4-yl)oxy)-1H-indol-2-yl)-8-methoxy-[1,2,4]triazolo[1,5-a]pyridine], the IC50 was 0.0003 µM on human TLR7, 0.0005 µM on human TLR8 and 1.75 µM against human TLR9.

Usually IC50 stands for the concentration that gives 50% inhibition.
